Data on 19 compounds can be found in US8791108B2, “Inhibitors of human immunodeficiency virus replication” (priority 2011, dated 2014).

The test system of the assay is recombinant NL-Rluc virus. Description: Inhibition of HIV replication (NL-RLuc luciferase reporter virus, MT-2 cells). The assay is classed as cell-based. Particulars: Human immunodeficiency virus 1, MT2, 120 h. (A reporter such as luciferase makes a cellular process visible.)

Structures are written as SMILES. Read-outs that look alike come from different tables or passages of the source.

Turning to `CCCCc1ccc(CNC(=O)c2cc3nc(C)c([C@H](OC(C)(C)C)C(=O)O)c(-c4cc(F)c5c(c4C)CCCO5)n3n2)cc1` [Example 31, (2S)-2-(tert-butoxy)-2-(2-((4-butylbenzyl)carbamoyl)-7-(8-fluoro-5-methylchroman-6-yl)-5-methylpyrazolo[1,5-a]pyrimidin-6-yl)acetic acid], for the setting “read-out: Activity”, the EC50 was less than 0.1 µM.

`Cc1nc2cc(C(=O)N(C)Cc3ccccc3F)nn2c(-c2cc(F)c3c(c2C)CCCO3)c1[C@H](OC(C)(C)C)C(=O)O` [Example 22, (2S)-2-(tert-butoxy)-2-(7-(8-fluoro-5-methylchroman-6-yl)-2-((2-fluorobenzyl)(methyl)carbamoyl)-5-methylpyrazolo[1,5-a]pyrimidin-6-yl)acetic acid]: for the setting “read-out: Activity”, the EC50 is less than 0.1 µM.

Consider `Cc1nc2cc(C(=O)NS(=O)(=O)Cc3ccccc3)nn2c(-c2cc(F)c3c(c2C)CCCO3)c1[C@H](OC(C)(C)C)C(=O)O` [Example 14, (2S)-2-(2-((benzylsulfonyl)carbamoyl)-7-(8-fluoro-5-methylchroman-6-yl)-5-methylpyrazolo[1,5-a]pyrimidin-6-yl)-2-(tert-butoxy)acetic acid], for which the EC50 (read-out: Activity) was greater than 1 µM.

Consider `Cc1nc2cc(C(=O)N3CCC(Cc4ccccc4)CC3)nn2c(-c2cc(F)c3c(c2C)CCCO3)c1[C@H](OC(C)(C)C)C(=O)O` [Example 105, (2S)-2-(2-(4-benzylpiperidine-1-carbonyl)-7-(8-fluoro-5-methylchroman-6-yl)-5-methylpyrazolo[1,5-a]pyrimidin-6-yl)-2-(tert-butoxy)acetic acid], for which the EC50 (read-out: Activity) is less than 0.1 µM.

As for `Cc1nc2cc(C(=O)NCc3ccc(F)cc3-n3ncnc3C)nn2c(-c2cc(F)c3c(c2C)CCCO3)c1C(OC(C)(C)C)C(=O)O` (stereo in doubt) [Example 9, (2S)-2-(tert-butoxy)-2-(2-((4-fluoro-2-(5-methyl-1H-1,2,4-triazol-1-yl)benzyl)carbamoyl)-7-(8-fluoro-5-methylchroman-6-yl)-5-methylpyrazolo[1,5-a]pyrimidin-6-yl)acetic acid], where the note is “read-out: Activity”, the EC50 lay within 0.1 to 1 µM.

Take `Cc1cc(CNC(=O)c2cc3nc(C)c([C@H](OC(C)(C)C)C(=O)O)c(-c4ccc5c(c4Cl)NCCO5)n3n2)ccc1F` [Example 141, (2S)-2-(tert-Butoxy)-2-(7-(5-chloro-3,4-dihydro-2H-benzo[b][1,4]oxazin-6-yl)-2-((4-fluoro-3-methylbenzyl)carbamoyl)-5-methylpyrazolo[1,5-a]pyrimidin-6-yl)acetic acid]: the EC50 is 0.1 to 1 µM (read-out: Activity) and 0.114 µM (read-out: EC50 μM).

For `COc1ccc(CNC(=O)c2cc3nc(C)c([C@H](OC(C)(C)C)C(=O)O)c(-c4cc(F)c5c(c4C)CCCO5)n3n2)cc1OC` [Example 41, (2S)-2-(tert-butoxy)-2-(2-((3,4-dimethoxybenzyl)carbamoyl)-7-(8-fluoro-5-methylchroman-6-yl)-5-methylpyrazolo[1,5-a]pyrimidin-6-yl)acetic acid], the EC50 (read-out: Activity) fell in the range of 0.1 to 1 µM.

Consider `Cc1nc2cc(C(=O)NCc3cccc(OC(F)(F)F)c3)nn2c(-c2cc(F)c3c(c2C)CCCO3)c1[C@H](OC(C)(C)C)C(=O)O` [Example 67], for which the EC50 is less than 0.1 µM (read-out: Activity) and 0.009 µM (read-out: EC50 μM).

For `Cc1cc(CNC(=O)c2nn3c(-c4cc(F)c5c(c4C)CCCO5)c([C@H](OC(C)(C)C)C(=O)O)c(C)nc3c2F)ccc1F` [Example 139, (2S)-2-(tert-Butoxy)-2-(3-fluoro-2-((4-fluoro-3-methylbenzyl)carbamoyl)-7-(8-fluoro-5-methylchroman-6-yl)-5-methylpyrazolo[1,5-a]pyrimidin-6-yl)acetic acid], the EC50 (read-out: Activity) is less than 0.1 µM.

In the case of `Cc1nc2cc(C(=O)NCCOC(C)C)nn2c(-c2cc(F)c3c(c2C)CCCO3)c1[C@H](OC(C)(C)C)C(=O)O` [Example 102, (2S)-2-(tert-butoxy)-2-(7-(8-fluoro-5-methylchroman-6-yl)-2-((2-isopropoxyethyl)carbamoyl)-5-methylpyrazolo[1,5-a]pyrimidin-6-yl)acetic acid], the EC50 (read-out: Activity) is less than 0.1 µM.

On to `Cc1cccc(CNC(=O)c2cc3nc(C)c([C@H](OC(C)(C)C)C(=O)O)c(-c4cc(F)c5c(c4C)CCCO5)n3n2)c1` [Example 6], for which the EC50 (read-out: Activity) is less than 0.1 µM.

Take `COc1cc(F)ccc1CNC(=O)c1cc2nc(C)c([C@H](OC(C)(C)C)C(=O)O)c(-c3cc(F)c4c(c3C)CCCO4)n2n1` [Example 29, (2S)-2-(tert-butoxy)-2-(2-((4-fluoro-2-methoxybenzyl)carbamoyl)-7-(8-fluoro-5-methylchroman-6-yl)-5-methylpyrazolo[1,5-a]pyrimidin-6-yl)acetic acid]: under “read-out: Activity”, the EC50 was less than 0.1 µM.

In the case of `Cc1ccc(CNC(=O)c2cc3nc(C)c([C@H](OC(C)(C)C)C(=O)O)c(-c4cc(F)c5c(c4C)CCCO5)n3n2)cc1` [Example 5, (2S)-2-(tert-butoxy)-2-(7-(8-fluoro-5-methylchroman-6-yl)-5-methyl-2-((4-methylbenzyl)carbamoyl)pyrazolo[1,5-a]pyrimidin-6-yl)acetic acid], the EC50 (read-out: Activity) was less than 0.1 µM.

Take `Cc1nc2cc(C(=O)N3CCC(c4ccc(Cl)cc4)CC3)nn2c(-c2cc(F)c3c(c2C)CCCO3)c1[C@H](OC(C)(C)C)C(=O)O` [Example 86, (2S)-2-(tert-butoxy)-2-(2-(4-(4-chlorophenyl)piperidine-1-carbonyl)-7-(8-fluoro-5-methylchroman-6-yl)-5-methylpyrazolo[1,5-a]pyrimidin-6-yl)acetic acid]: for the setting “read-out: Activity”, the EC50 was less than 0.1 µM.

Regarding `Cc1nc2cc(C(=O)NCCc3cccc(Cl)c3)nn2c(-c2cc(F)c3c(c2C)CCCO3)c1[C@H](OC(C)(C)C)C(=O)O` [Example 81, (2S)-2-(tert-butoxy)-2-(2-((3-chlorophenethyl)carbamoyl)-7-(8-fluoro-5-methylchroman-6-yl)-5-methylpyrazolo[1,5-a]pyrimidin-6-yl)acetic acid], the EC50 (read-out: Activity) was less than 0.1 µM.

As for `Cc1nc2cc(C(=O)NCCC3CCCCC3)nn2c(-c2cc(F)c3c(c2C)CCCO3)c1[C@H](OC(C)(C)C)C(=O)O` [Example 128, (2S)-2-(tert-butoxy)-2-(2-((2-cyclohexylethyl)carbamoyl)-7-(8-fluoro-5-methylchroman-6-yl)-5-methylpyrazolo[1,5-a]pyrimidin-6-yl)acetic acid], the EC50 (read-out: Activity) is less than 0.1 µM.

For the compound `Cc1nc2cc(C(=O)NCC3CCCO3)nn2c(-c2cc(F)c3c(c2C)CCCO3)c1[C@H](OC(C)(C)C)C(=O)O` (stereo partly drawn) [Example 77, (2S)-2-(tert-butoxy)-2-(7-(8-fluoro-5-methylchroman-6-yl)-5-methyl-2-(((tetrahydrofuran-2-yl)methyl)carbamoyl)pyrazolo[1,5-a]pyrimidin-6-yl)acetic acid], under “read-out: Activity”, the EC50 was 0.1 to 1 µM.

Consider `Cc1nc2cc(C(=O)NCCCC3CCOC3)nn2c(-c2cc(F)c3c(c2C)CCCO3)c1[C@H](OC(C)(C)C)C(=O)O` (stereo partly drawn) [Example 132, (2S)-2-(tert-butoxy)-2-(7-(8-fluoro-5-methylchroman-6-yl)-5-methyl-2-((3-(tetrahydrofuran-3-yl)propyl)carbamoyl)pyrazolo[1,5-a]pyrimidin-6-yl)acetic acid], for which the EC50 (read-out: Activity) was 0.1 to 1 µM.

Regarding `CCCCNC(=O)c1cc2nc(C)c([C@H](OC(C)(C)C)C(=O)O)c(-c3cc(F)c4c(c3C)CCCO4)n2n1` [Example 114, (2S)-2-(tert-butoxy)-2-(2-(butylcarbamoyl)-7-(8-fluoro-5-methylchroman-6-yl)-5-methylpyrazolo[1,5-a]pyrimidin-6-yl)acetic acid], the EC50 (read-out: Activity) was less than 0.1 µM.
